Blank lines part the entries; values can stand above or below the molecule they belong to.
Biological target: T1, Bcl-2 protein (Recombinant Human Bcl-2 Protein) (Homo sapiens, UniProt P10415)
T1 construct: purchased Novus NBP2-34889
Assay: Binding evaluation of mixture library compounds to Bcl-2 using AS-MS (affinity selection mass spectrometry)
Details: for ASMS ratio (%) n = 1: replicate n = 1; for ASMS ratio (%) n = 1 / ASMS ratio (%) n = 2: ASMS Ratio(%)=(A−C)/B×100; for ASMS ratio (%) n = 2: replicate n = 2
Outline: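 Bcl-2 binding is scored from LC/MS signal retained with protein through gel-filtration spin columns, normalised to unfiltered and protein-free controls. Incubation: 20 μM protein, […] per compound, 1 h, 23° C.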

[1] = AS-MS, mixture of 1200 compounds, Bcl-2
[2] = AS-MS on the mixture of 1200 library compounds

T1 sequence (P10415 whole entry): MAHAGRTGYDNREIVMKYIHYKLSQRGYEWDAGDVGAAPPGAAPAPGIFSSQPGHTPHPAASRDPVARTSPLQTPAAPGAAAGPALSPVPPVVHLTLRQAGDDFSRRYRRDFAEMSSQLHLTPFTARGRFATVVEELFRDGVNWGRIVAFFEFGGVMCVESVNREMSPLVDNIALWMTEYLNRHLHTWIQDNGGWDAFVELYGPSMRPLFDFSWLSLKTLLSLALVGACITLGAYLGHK

Molecule: CCOc1cncc(-c2ccc(CN3CCN(c4ccc(C(=O)NS(=O)(=O)C(C)(C)C)cc4)CC3)c(CC)c2)c1 [B2L050-01]
ASMS ratio (%) (n = 1): 0.0%
ASMS ratio (%) (n = 2): 0.0%

Molecule: CCOc1cncc(-c2csc(CN3CCN(c4ccc(C(=O)N(CC)CC)cc4)CC3)c2)c1 [B4J068-01, 4-[4-[[4-(5-Ethoxypyridin-3-yl)thiophen-2-yl]methyl]piperazin-1-yl]-N,N-diethylbenzamide]
ASMS ratio (%) n = 1 (AS-MS, mixture library, Bcl-2): 0.7%
ASMS ratio (%) n = 2 (AS-MS, mixture library, Bcl-2): 0.0%

ASMS ratio (%) n = 1 (AS-MS, mixture library, Bcl-2): 1.4%
ASMS ratio (%) n = 2 (AS-MS, mixture library, Bcl-2): −1.5%
Molecule: CCOc1cncc(-c2cc(CN3CCN(c4ccc(C(=O)N(CC)CC)nn4)CC3)cc(OC(F)(F)F)c2)c1 [B4J090-01, 6-[4-[[3-(5-Ethoxypyridin-3-yl)-5-(trifluoromethoxy)phenyl]methyl]piperazin-1-yl]-N,N-diethylpyridazine-3-carboxamide]

ASMS ratio (%) (n = 1): 0.0%
ASMS ratio (%) (n = 2): 0.0%
Molecule: CCOc1cccc(-c2ccc(C(C)N3CCN(c4ccc(C(=O)NS(=O)(=O)C(C)(C)C)cc4)CC3)cc2)c1 (centres unmarked) [B2L097-01, N-tert-Butylsulfonyl-4-[4-[1-[4-(3-ethoxyphenyl)phenyl]ethyl]piperazin-1-yl]benzamide]

ASMS ratio (%) n = 1 (AS-MS, mixture library, Bcl-2): 0.0%
ASMS ratio (%) n = 2 (AS-MS, mixture library, Bcl-2): 0.0%
Molecule: CCOc1cccc(-c2ccc(CN3CCN(c4ccc(C(=O)NS(=O)(=O)c5ccc(NCCSc6ccccc6)c([N+](=O)[O-])c5)nn4)CC3)c(CC)c2)c1 [B2Q075-01, 6-[4-[[4-(3-Ethoxyphenyl)-2-ethylphenyl]methyl]piperazin-1-yl]-N-[3-nitro-4-(2-phenylsulfanylethylamino)phenyl]sulfonylpyridazine-3-carboxamide]

ASMS ratio (%) n = 1 [1]: 14.9%
ASMS ratio (%) n = 2 [1]: −7.0%
Molecule: CCOc1cccc(-c2ccc(C(=O)N3CCN(c4ccc(C(=O)NCC56CC7CC(CC(C7)C5)C6)cc4)CC3)c3ccccc23)c1 [B1A035-01, N-(1-Adamantylmethyl)-4-[4-[4-(3-ethoxyphenyl)naphthalene-1-carbonyl]piperazin-1-yl]benzamide]

Molecule: CCOc1cccc(-c2cc(CN3CCN(c4ccc(C(=O)N(CC)CC)cc4)CC3)cc(OC(F)(F)F)c2)c1 [B4J063-01, 4-[4-[[3-(3-Ethoxyphenyl)-5-(trifluoromethoxy)phenyl]methyl]piperazin-1-yl]-N,N-diethylbenzamide]
ASMS ratio (%) n = 1 (AS-MS, mixture library, Bcl-2): 4.5%
ASMS ratio (%) n = 2 (AS-MS, mixture library, Bcl-2): 0.1%

ASMS ratio (%) n = 1 (AS-MS, mixture library, Bcl-2): −2.6%
ASMS ratio (%) n = 2 (AS-MS, mixture library, Bcl-2): −0.2%
Molecule: CCOc1cncc(-c2ccc(C(=O)N3CCN(c4ccc(C(=O)NS(C)(=O)=O)cc4)CC3)cc2C)c1 [B2I026-01, 4-[4-[4-(5-Ethoxypyridin-3-yl)-3-methylbenzoyl]piperazin-1-yl]-N-methylsulfonylbenzamide]

ASMS ratio (%) n = 1 [1]: 0.0%
ASMS ratio (%) n = 2 [1]: 0.0%
Molecule: CCOc1cncc(-c2ccc(CN3CCN(c4ccc(C(=O)NCC(F)(F)F)nn4)CC3)cc2C)c1 [B1K074-01, 6-[4-[[4-(5-Ethoxypyridin-3-yl)-3-methylphenyl]methyl]piperazin-1-yl]-N-(2,2,2-trifluoroethyl)pyridazine-3-carboxamide]

ASMS ratio (%) (n = 1): 0.0%
ASMS ratio (%) (n = 2): 0.0%
Molecule: CCOc1cncc(-c2ccc(CN3CCN(c4ccc(C(=O)NS(=O)(=O)CCC(F)(F)F)nn4)CC3)c(OC)c2)c1 [B2N080-01]

ASMS ratio (%) n = 1 (AS-MS, mixture library, Bcl-2): −1.6%
ASMS ratio (%) n = 2 (AS-MS, mixture library, Bcl-2): −1.6%
Molecule: CCOc1cncc(C#Cc2cncc(C(=O)N3CCN(c4ccc(C(=O)NS(C)(=O)=O)cc4)CC3)c2)c1 [B2I032-01, 4-[4-[5-[2-(5-Ethoxypyridin-3-yl)ethynyl]pyridine-3-carbonyl]piperazin-1-yl]-N-methylsulfonylbenzamide]

ASMS ratio (%) n = 1 (AS-MS, mixture library, Bcl-2): 0.0%
ASMS ratio (%) n = 2 (AS-MS, mixture library, Bcl-2): −0.3%
Molecule: CCOc1cncc(-c2cc(CN3CCN(c4ccc(C(=O)NS(=O)(=O)CC56CC7CC(CC(C7)C5)C6)cc4)CC3)cc(OC(F)(F)F)c2)c1 [B2A064-01, N-(1-Adamantylmethylsulfonyl)-4-[4-[[3-(5-ethoxypyridin-3-yl)-5-(trifluoromethoxy)phenyl]methyl]piperazin-1-yl]benzamide]

Molecule: CCOc1cccc(-c2ccc(CN3CCN(c4ccc(C(=O)NS(=O)(=O)CCC(F)(F)F)cc4)CC3)c3ccccc23)c1 [B2N065-01]
ASMS ratio (%) (n = 1): 0.0%
ASMS ratio (%) (n = 2): 0.0%

ASMS ratio (%) n = 1 (AS-MS, mixture library, Bcl-2): 0.0%
ASMS ratio (%) n = 2 (AS-MS, mixture library, Bcl-2): −0.6%
Molecule: CCOc1cncc(-c2cc(CN3CCN(c4ccc(C(=O)N(CC)CC)nn4)CC3)cc(OC(C)C)c2)c1 [B4J084-01, 6-[4-[[3-(5-Ethoxypyridin-3-yl)-5-propan-2-yloxyphenyl]methyl]piperazin-1-yl]-N,N-diethylpyridazine-3-carboxamide]

ASMS ratio (%) n = 1 [1]: 0.0%
ASMS ratio (%) n = 2 [1]: 0.0%
Molecule: CCOc1cncc(-c2ccc(CN3CCN(c4ccc(C(=O)NCC(F)(F)F)cc4)CC3)c(OC)c2)c1 [B1K054-01, 4-[4-[[4-(5-Ethoxypyridin-3-yl)-2-methoxyphenyl]methyl]piperazin-1-yl]-N-(2,2,2-trifluoroethyl)benzamide]

ASMS ratio (%) n = 1 [2]: 1.8%
ASMS ratio (%) n = 2 [2]: 0.3%
Molecule: CCOc1cncc(-c2cc(C(=O)N3CCN(c4ccc(C(=O)Nc5ccc(OC)cc5)cc4)CC3)cc(C(F)(F)F)c2)c1 [B1O040-01, 4-[4-[3-(5-Ethoxypyridin-3-yl)-5-(trifluoromethyl)benzoyl]piperazin-1-yl]-N-(4-methoxyphenyl)benzamide]

Molecule: 4-[4-[3-[2-(5-Ethoxypyridin-3-yl)ethynyl]-5-(trifluoromethyl)benzoyl]piperazin-1-yl]-N-propylbenzamide [B1M019-01]
ASMS ratio (%) n = 1 [1]: 1.5%
ASMS ratio (%) n = 2 [1]: 0.0%

ASMS ratio (%) n = 1 (AS-MS, mixture library, Bcl-2): 1.8%
ASMS ratio (%) n = 2 (AS-MS, mixture library, Bcl-2): −3.5%
Molecule: CCOc1cncc(-c2cc(C(=O)N3CCN(c4ccc(C(=O)NS(=O)(=O)CC56CC7CC(CC(C7)C5)C6)cc4)CC3)cc(C(C)(C)C)c2)c1 [B2A038-01, N-(1-Adamantylmethylsulfonyl)-4-[4-[3-tert-butyl-5-(5-ethoxypyridin-3-yl)benzoyl]piperazin-1-yl]benzamide]

ASMS ratio (%) n = 1 [2]: 1.6%
ASMS ratio (%) n = 2 [2]: 0.4%
Molecule: CCOc1cncc(-c2ccc(CN3CCN(c4ccc(C(=O)Nc5ccc(OC)cc5)cc4)CC3)cc2F)c1 [B1O052-01, 4-[4-[[4-(5-Ethoxypyridin-3-yl)-3-fluorophenyl]methyl]piperazin-1-yl]-N-(4-methoxyphenyl)benzamide]

ASMS ratio (%) n = 1 [1]: 3.3%
ASMS ratio (%) n = 2 [1]: 0.2%
Molecule: CCOc1cncc(-c2cc(CN3CCN(c4ccc(C(=O)NCC(F)(F)F)cc4)CC3)cc(OCC)c2)c1 [B1K056-01, 4-[4-[[3-Ethoxy-5-(5-ethoxypyridin-3-yl)phenyl]methyl]piperazin-1-yl]-N-(2,2,2-trifluoroethyl)benzamide]

ASMS ratio (%) n = 1 [1]: 5.3%
ASMS ratio (%) n = 2 [1]: 1.1%
Molecule: CCOc1cccc(-c2cc(CN3CCN(c4ccc(C(=O)NCC56CC7CC(CC(C7)C5)C6)cc4)CC3)cc(C(F)(F)F)c2)c1 [B1A061-01, N-(1-Adamantylmethyl)-4-[4-[[3-(3-ethoxyphenyl)-5-(trifluoromethyl)phenyl]methyl]piperazin-1-yl]benzamide]

ASMS ratio (%) (n = 1): 21.6%
ASMS ratio (%) (n = 2): 0.0%
Molecule: CCOc1cccc(-c2ccc(C(=O)N3CCN(c4ccc(C(=O)NS(=O)(=O)c5ccc(NCCSc6ccccc6)c(C(F)(F)F)c5)nn4)CC3)cc2C)c1 [B2R003-01, 6-[4-[4-(3-Ethoxyphenyl)-3-methylbenzoyl]piperazin-1-yl]-N-[4-(2-phenylsulfanylethylamino)-3-(trifluoromethyl)phenyl]sulfonylpyridazine-3-carboxamide]

From patent publication US20240132431A1, “METHOD FOR ALKYLATING ACIDIC FUNCTIONAL GROUP” (Chugai Seiyaku Kabushiki Kaisha, priority 2021, published 2024)
